Patent US12227520B2 (priority 2019, dated 2025)
Like-named read-outs stand apart in the source and are kept apart here.

Tests used:
HIV-1 (IIIB) = experiment: Antiviral assay in MT-4 cells (HIV MT-4 antiviral assay); assay type: cell-based; conditions: HIV-1 (IIIB) in MT-4 cells, 5 days incubation
Summary of the method: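 Read-out is CellTiter-Glo chemiluminescence after 5-day culture at 37° C, giving protection of MT-4 cells from HIV-1 IIIB cytopathicity. Compounds tested in 1:3 dilution series in complete RPMI; controls were no drug, mock infection and 5 μM AZT.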

[1] = Cytotoxicity assay in MT-4 cells; assay type: cell-based, human; conditions: human, uninfected MT-4 cells, 5 days incubation; read-out: CC50
Summary of the method: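 For cytotoxicity, uninfected MT-4 cells were incubated with compounds 5 days at 37 °C, with 10 μM puromycin marking base cytotoxicity. Parallel plates used HIV-1 IIIB-infected (1:250 stock dilution) or mock cells with 5 μM AZT and no-drug controls. Read-out: CellTiter-Glo chemiluminescence.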

pLai RLuc reporter virus = experiment: microbe, parasite or virus in culture; assay type: cell-based, HIV; conditions: Human immunodeficiency virus 1, 72 h
Summary of the method: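 Read-out is Renilla luciferase after 72 h at 37 °C in MT-4 cells infected 2 h beforehand with pLai RLuc reporter virus; compounds diluted 1:3.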

[2] = Human immunodeficiency virus 1, IIIB, MT4, 120 h, read-out: EC50
[3] = read-out: Antiviral Serum Shift RLuc 50% HS, HS/CCM (RPMI media, 10% FBS, 50% HS, 1% P/S), 72-h incubation
[4] = read-out: Antiviral Serum Shift RLuc CCM, CCM (RPMI media, 10% FBS, 1% P/S), 72-h incubation

| SMILES | EC50 (HIV-1 (IIIB); [2]) [nM] | CC50 at 5 days [1] [nM] | EC50 (pLai RLuc reporter virus; [3]) [nM] | EC50 (pLai RLuc reporter virus; [4]) [nM] | EC50 (HIV-1 (IIIB); Human immunodeficiency virus 1, IIIB, MT4, 120 h) [nM] | EC50 (HIV-1 (IIIB); read-out: EC50) [nM] |
| --- | --- | --- | --- | --- | --- | --- |
| O=C(NCc1c(F)cc(F)cc1F)c1cn2c(c(O)c1=O)C(=O)N1CCC=C[C@H]2C1 [Example 109-2, (7S)-12-hydroxy-1,11-dioxo-N-(2,4,6-trifluorobenzyl)-1,4,7,11-tetrahydro-3H-2,7-methanopyrido[1,2-a][1,4]diazonine-10-carboxamide] | 1.47 | 11800 | 4.34 | 0.236 |  |  |
| C[C@H]1[C@@H]2CCCCN1C(=O)c1c(O)c(=O)c(C(=O)NCc3c(F)cc(F)cc3F)cn12 [Example 8, (7S, 13S)-12-hydroxy-13-methyl-1,11-dioxo-N-(2,4,6-trifluorobenzyl)-1,4,5,6,7,11-hexahydro-3H-2,7-methanopyrido[1,2-a][1,4]diazonine-10-carboxamide] |  | 20800 | 1.41 | 0.41 | 1.5 |  |
| O=C(NCc1c(F)cc(F)cc1F)c1cn2c(c(O)c1=O)C(=O)N1CCC(F)=C[C@H]2C1 [Example 121, (7S)-5-fluoro-12-hydroxy-1,11-dioxo-N-(2,4,6-trifluorobenzyl)-1,4,7,11-tetrahydro-3H-2,7-methanopyrido[1,2-a][1,4]diazonine-10-carboxamide] | 1.76 | 24800 | 0.505 | 0.235 |  |  |
| O=C(NCc1ccc(F)cc1F)c1cn2c(c(O)c1=O)C(=O)N1CC2CCc2ccccc21 (stereo not drawn) [Example 36, N-(2,4-difluorobenzyl)-7-hydroxy-6,8-dioxo-6,8,13,14-tetrahydro-12H-5,12-methanobenzo[e]pyrido[1,2-a][1,4]diazonine-9-carboxamide] | 2 | 17700 | 7.16 | 0.917 |  |  |
| C[C@]12CN(CCc3cc(F)c(F)cc31)C(=O)c1c(O)c(=O)c(C(=O)NCc3c(F)cc(F)cc3F)cn12 (single isomer, unassigned) [Example 120-2] | > 59.4 | 11100 | 239 | 14 |  |  |
| C[C@@H]1CC[C@H]2CN(C1)C(=O)c1c(O)c(=O)c(C(=O)NCc3c(F)cc(F)cc3F)cn12 [Example 137-2, (4R,7S)-12-hydroxy-4-methyl-1,11-dioxo-N-(2,4,6-trifluorobenzyl)-1,4,5,6,7,11-hexahydro-3H-2,7-methanopyrido[1,2-a][1,4]diazonine-10-carboxamide] | 2.02 | 20700 | 0.821 | 0.182 |  |  |
| C[C@@]12CN(CCc3cc(F)c(F)cc31)C(=O)c1c(O)c(=O)c(C(=O)NCc3c(F)cc(F)cc3F)cn12 (single isomer, unassigned) [Example 120-1] | 3.54 | 8990 | 4.96 | 0.371 |  |  |
| O=C(NCc1ccc(F)cc1F)c1cn2c(c(O)c1=O)C(=O)N1CCCC3(CC3)[C@@H]2C1 [Example 57-2, (7′R)—N-(2,4-difluorobenzyl)-12′-hydroxy-1′,11′-dioxo-1′,4′,5′,11′-tetrahydro-3′H,7′H-spiro[cyclopropane-1,6′-[2,7]methanopyrido[1,2-a][1,4]diazonine]-10′-carboxamide] | 1.77 | 8910 | 133 | 0.396 |  |  |
| O=C(NCc1c(F)cc(F)cc1F)c1cn2c(c(O)c1=O)C(=O)N1CCC=C(F)[C@@H]2C1 (single isomer, unassigned) [Example 75-1] | 3.76 | 15100 | 298 | 0.595 |  |  |
| O=C(NCc1c(F)cc(F)cc1F)c1cn2c(c(O)c1=O)C(=O)N1CCC[C@H](O)C[C@H]2C1 [Example 82-1, (6S,8S)-6,13-dihydroxy-1,12-dioxo-N-(2,4,6-trifluorobenzyl)-1,3,4,5,6,7,8,12-octahydro-2,8-methanopyrido[1,2-a][1,4]diazecine-11-carboxamide] | 20.5 | > 50000 | 5.16 | 4.5 |  |  |
| O=C(NCc1c(F)cc(F)cc1F)c1cn2c(c(O)c1=O)C(=O)N1CCc3cc(Cl)ccc3[C@@H]2C1 [Example 136-2, (13R)-10-chloro-4-hydroxy-3,5-dioxo-N-(2,4,6-trifluorobenzyl)-3,5,8,13-tetrahydro-7H-6,13-methanobenzo[g]pyrido[1,2-a][1,4]diazonine-2-carboxamide] | 1.55 | 6550 | 5.71 | 0.392 |  |  |
| O=C(NCc1ccc(F)cc1F)c1cn2c(c(O)c1=O)C(=O)N1CC[C@@H](F)C[C@@H]2C1 [Example 56-4, (5R, 7R)—N-(2,4-difluorobenzyl)-5-fluoro-12-hydroxy-1,11-dioxo-1,4,5,6,7,11-hexahydro-3H-2,7-methanopyrido[1,2-a][1,4]diazonine-10-carboxamide] | 8.09 | 30500 | 15.4 | 2.16 |  |  |
| C[C@]12CC=CCN(C1)C(=O)c1c(O)c(=O)c(C(=O)NCc3ccc(F)cc3F)cn12 [Example 168, (7S)—N-(2,4-difluorobenzyl)-12-hydroxy-7-methyl-1,11-dioxo-1,6,7,11-tetrahydro-3H-2,7-methanopyrido[1,2-a][1,4]diazonine-10-carboxamide] | 1.75 | 13700 | 41.3 | 0.187 |  |  |
| O=C(NCc1c(F)cc(F)cc1F)c1cn2c(c(O)c1=O)C(=O)N1CC[C@@H](O)CC[C@H]2C1 [Example 83-1, (5S,8S)-5,13-dihydroxy-1,12-dioxo-N-(2,4,6-trifluorobenzyl)-1,3,4,5,6,7,8,12-octahydro-2,8-methanopyrido[1,2-a][1,4]diazecine-11-carboxamide] | 39 | > 50000 | 7.08 | 8.19 |  |  |
| C[C@@H]1CC[C@@H](C)N2C[C@H]1n1cc(C(=O)NCc3c(F)cc(F)cc3F)c(=O)c(O)c1C2=O [Example 151-2, (3R,6R,7S)-12-hydroxy-3,6-dimethyl-1,11-dioxo-N-(2,4,6-trifluorobenzyl)-1,4,5,6,7,11-hexahydro-3H-2,7-methanopyrido[1,2-a][1,4]diazonine-10-carboxamide] | 1.75 | 7200 | 7.22 | 0.44 |  |  |
| O=C(NCc1c(F)cc(F)cc1F)c1cn2c(c(O)c1=O)C(=O)N1CC2CCc2ccccc21 (single isomer, unassigned) [Example 38-1] |  | 11000 | 360 | 2.64 |  | 16.3 |
| C[C@]1(F)CCCN2C[C@H]1n1cc(C(=O)NCc3ccc(F)cc3F)c(=O)c(O)c1C2=O [Example 60-1, (6S,7R)—N-(2,4-difluorobenzyl)-6-fluoro-12-hydroxy-6-methyl-1,11-dioxo-1,4,5,6,7,11-hexahydro-3H-2,7-methanopyrido[1,2-a][1,4]diazonine-10-carboxamide] | 1.77 | 13900 | 1.6 | 0.457 |  |  |
| O=C(NCc1c(F)cc(F)cc1F)c1cn2c(c(O)c1=O)C(=O)N1C[C@@H]2CCc2ccc(F)cc21 [Example 86-2, (12S)-3-fluoro-7-hydroxy-6,8-dioxo-N-(2,4,6-trifluorobenzyl)-6,8,13,14-tetrahydro-12H-5,12-methanobenzo[e]pyrido[1,2-a][1,4]diazonine-9-carboxamide] | 1.1 | 13700 | 0.5 | 0.262 |  |  |
